These results are taken from patent US20170197935A1, “INHIBITORS OF DNA GYRASE FOR THE TREATMENT OF BACTERIAL INFECTIONS” (Vitas Pharma Research Private Limited, priority 2012, published 2017).

The subject of data set [1] is Methicillin resistant Staphylococcus aureus (ATCC 33591). The data set is described as follows: MIC by microbroth dilution, MRSA ATCC 33591. The class given is cell-based. The procedure:
(§1) Shown below are the microbiological activities of representative compounds of Formula I of the invention. The compounds were tested by the microbroth dilution method (National committee for Clinical Laboratory Standards, 2011, M07-08) and the Minimum Inhibitory Concentration (MIC) was determined.
(§2) Analysis of microbiological activity of compounds shown below are the microbiological activities of representative compounds of Formula II of the invention. The compounds were tested by the microbroth dilution method as per the reference in Example 1.
For orientation: In broth dilution the organism is exposed to a series of concentrations in liquid medium.

Data set [2] deals with E. coli (ATCC 25922). Briefly: MIC by microbroth dilution, E. coli ATCC 25922. The class given is cell-based. Particulars: Escherichia coli. The procedure: as §1, §2
Data set [3] is described as follows: Single dose pharmacokinetics in male Swiss albino mice. The class given is in vivo. Particulars: mouse, in vivo; for bioavailability: oral 10 mg/kg vs i.v. 5 mg/kg. The protocol:
(§3) Compounds were dosed to male Swiss albino mice to determine the pharmacokinetic profiles.
as §3

Data set [4] relates to E. faecalis ATCC 51299. Briefly: MIC by microbroth dilution, E. faecalis ATCC 51299. It counts as cell-based. The settings on record: Enterococcus faecalis, ATCC51299, Formula II compounds, read-out: Minimum Inhibitory Concentration (MIC) E. faecalis ATCC 51299. The protocol: as §1, §2
For data set [5], the system named is Acinetobacter BAA747. Briefly: MIC by microbroth dilution, Acinetobacter BAA747. It counts as cell-based. The settings on record: Formula II compounds, read-out: Minimum Inhibitory Concentration (MIC) Acinetobacter BAA747. The protocol:
as §1, §2

Data set [6] deals with Pseudomonas ATCC 27853. The data set is described as follows: MIC by microbroth dilution, Pseudomonas ATCC 27853. It counts as cell-based. The settings on record: ATCC27853, Formula II compounds, read-out: Minimum Inhibitory Concentration (MIC) Pseudomonas ATCC 27853. The procedure: as §1, §2
The target in data set [7] is T1, ciprofloxacin resistant recombinant Gyrase protein (with mutation S83L) (Escherichia coli, UniProt P0AES4+P0AES6, S83L).
T1 construct: purchased Inspiralis
Briefly: Gyrase supercoiling assay with ciprofloxacin resistant Gyrase (S83L). The class given is biochemical. The settings on record: read-out: Target specificity: % inhibition of supercoiling activity. The protocol: The enzyme is incubated with the substrate (relaxed DNA) in the presence and absence of compounds for 1 hour at 37° C. and the DNA is run on a gel at low voltage for several hours. The amount of supercoiled DNA is quantified using DNA imaging and quantification software (Image Lab). The activity of the enzyme is proportional to the amount of supercoiled form detected.

Data set [8] deals with Staphylococcus aureus (ATCC 29213). Briefly: MIC by microbroth dilution, Staphylococcus aureus ATCC 29213. The settings on record: ATCC29213. It counts as cell-based. The protocol:
(§4) Shown below are the microbiological activities of representative compounds of Formula I of the invention. The compounds were tested by the microbroth dilution method (National committee for Clinical Laboratory Standards, 2011, […]-08) and the Minimum Inhibitory Concentration (MIC) was determined.

Data set [9] relates to Streptococcus pneumoniae (ATCC 6301). The data set is described as follows: MIC by microbroth dilution, Streptococcus pneumoniae ATCC 6301. It counts as cell-based. Particulars: ATCC6301. The protocol:
as §4

The test system of data set [10] is Enterococcus faecalis (ATCC 29212). The data set is described as follows: MIC by microbroth dilution, Enterococcus faecalis ATCC 29212. The class given is cell-based. Particulars: ATCC29212. The protocol: as §4
The subject of data set [11] is Moraxella catarrhalis (ATCC 8176). The data set is described as follows: MIC by microbroth dilution, Moraxella catarrhalis ATCC 8176. The settings on record: ATCC8176. It counts as cell-based. The protocol:
as §4

The test system of data set [12] is K. pneumoniae (ATCC 700603). Briefly: MIC by microbroth dilution, K. pneumoniae ATCC 700603. It counts as cell-based. Particulars: Klebsiella pneumoniae, ATCC700603, Formula I compounds. The procedure:
as §1, §2

The target in data set [13] is hERG (Homo sapiens, UniProt Q12809). The data set is described as follows: biochemical.
Description: To test the ability of the VT-03 compounds to bind the hERG channel, membranes expressing the hERG channel were incubated with radiolabeled Astemizole and displacement of the labeled ligand in the presence of compounds was measured.
To test the ability of the VT-03 compounds (of Formula II) to bind the hERG channel, membranes expressing the hERG channel were incubated with radiolabeled Astemizole and displacement of the labeled ligand in the presence of compounds was measured.
The mark [14] stands for this setting: Formula II compounds, read-out: Minimum Inhibitory Concentration (MIC) MRSA ATCC 33591.
Setting [15] is: ATCC25922, Formula II compounds, read-out: Minimum Inhibitory Concentration (MIC) E. coli ATCC 25922.
Setting [16] is: ATCC33591, Formula I compounds, read-out: MIC Methicillin resistant Staphylococcus aureus (ATCC 33591).
Where [17] appears, read: ATCC25922, Formula I compounds, read-out: MIC E. coli (ATCC 25922).

Converted amounts (≈) assume the structure as drawn. Like-named read-outs stand apart in the source and are kept apart here. A value given as a limit tells only on which side of the number the result lay.

On to `Cc1ccc(CNC2CCN(CCn3c(=O)cnc4ccc(F)cc43)CC2)cc1[N+](=O)[O-]` [VT-03-00113], for which the MIC in [1] (setting [14]) was 0.03 µg/mL (≈ 0.0683 µM); in data set [2] (setting [15]), 0.125 µg/mL (≈ 0.284 µM); in [4] it was 0.25 µg/mL (≈ 0.569 µM); in data set [5], 0.25 µg/mL (≈ 0.569 µM); in data set [6], 8 µg/mL (≈ 18.2 µM). For the same compound, the AUC(0-t) turned out to be 402 ng·h/mL in [3] (iv, 5 mg/kg) and 9.3 ng·h/mL in data set [3] (oral, 10 mg/kg). The Cmax was determined as 672 ng/mL in data set [3] (iv, 5 mg/kg) and 15.6 ng/mL in [3] (oral, 10 mg/kg). The Tmax in data set [3] (iv, 5 mg/kg) was 9.6 min; in data set [3] (oral, 10 mg/kg), 30 min. In [3] (iv, 5 mg/kg), this compound had a half-life of 22.2 min. Further, the bioavailability in [3] came out at 1.16%. Also, the inhibition at 0.1 µM in data set [7] was found to be 90%. In [7], the inhibition at 1 µM was 94%.
As to `COc1ccc2ncc(=S)n(CCN3CCC(NCc4ccc(C)c(F)c4)CC3)c2c1` [VT-03-00126], the MIC is 0.5 µg/mL (≈ 1.13 µM) in [1] (setting [14]), 2 µg/mL (≈ 4.54 µM) in data set [2] (setting [15]), 8 µg/mL (≈ 18.2 µM) in data set [5] and over 32 µg/mL in [6].
For the compound `Cc1ccc(CNC2CCN(CCn3c(=O)cnc4ccc(Br)cc43)CC2)cc1F` [VT-03-00102], the MIC in data set [1] (setting [14]) is at most 0.0075 µg/mL; in [2] (setting [15]), 8 µg/mL (≈ 16.9 µM); in [4], 0.5 µg/mL (≈ 1.06 µM). Besides, the inhibition at 0.1 µM in [7] came to 96.5%. The inhibition at 1 µM in data set [7] is 95.3%.
Take `COc1ccc2ncc(=O)n(CCN3CC[C@H](NCc4ccc(C)c([N+](=O)[O-])c4)[C@H](F)C3)c2c1` [VT-03-00134]: the MIC in data set [1] (setting [14]) came out at 0.015 µg/mL (≈ 0.0319 µM); in [2] (setting [15]) it was 2 µg/mL (≈ 4.26 µM); in data set [4], 0.25 µg/mL (≈ 0.532 µM); in data set [5], 0.5 µg/mL (≈ 1.06 µM); in data set [6], 32 µg/mL (≈ 68.2 µM).
As to `COc1ccc2ncc(C#N)c(CCN3CCC(NC(=O)c4ccc(Cl)c([N+](=O)[O-])c4)CC3)c2c1` [VT-03-00058], the MIC in [8] was determined as 0.015 µg/mL (≈ 0.0304 µM); in [1] (setting [16]), 0.06 µg/mL (≈ 0.121 µM); in [9] it was 0.03 µg/mL (≈ 0.0607 µM); in [10], 0.25 µg/mL (≈ 0.506 µM); in data set [11], 0.5 µg/mL (≈ 1.01 µM); in [2] (setting [17]), 1 µg/mL (≈ 2.02 µM). The MIC in [12] came out at 16 µg/mL (≈ 32.4 µM). For the same compound, the IC50 in [13] was over 30 µM.
For `COc1ccc2ncc(=S)n(CCN3CCC(NCc4ccc(C)c(C#N)c4)CC3)c2c1` [VT-03-00132], the MIC in data set [1] (setting [14]) amounted to 1 µg/mL (≈ 2.23 µM); in data set [2] (setting [15]) it was 2 µg/mL (≈ 4.47 µM); in data set [4], 1 µg/mL (≈ 2.23 µM); in [5] it was 2 µg/mL (≈ 4.47 µM); in [6], 32 µg/mL (≈ 71.5 µM).
For the compound `O=c1cnc2ccc(F)cc2n1CCN1CCC(NCc2ccc(Cl)c([N+](=O)[O-])c2)CC1` [VT-03-00116], the MIC in data set [1] (setting [14]) came to 0.03 µg/mL (≈ 0.0652 µM); in data set [2] (setting [15]), 0.25 µg/mL (≈ 0.544 µM); in [4], 0.25 µg/mL (≈ 0.544 µM); in data set [5] it was 0.25 µg/mL (≈ 0.544 µM); in data set [6] it was 16 µg/mL (≈ 34.8 µM). Moreover, the inhibition at 0.1 µM in data set [7] turned out to be 96.9%. Also, in data set [7], the inhibition at 1 µM is 94.3%.
As to `COc1ccc2ncc(C#N)c(CCN3CCC(NCc4csc([N+](=O)[O-])c4)CC3)c2c1` [VT-03-00053], the MIC in data set [8] was determined as 0.25 µg/mL (≈ 0.554 µM); in data set [1] (setting [16]), 0.25 µg/mL (≈ 0.554 µM); in data set [9], 1 µg/mL (≈ 2.21 µM); in data set [10], 2 µg/mL (≈ 4.43 µM); in [11] it was 0.5 µg/mL (≈ 1.11 µM); in data set [2] (setting [17]), 4 µg/mL (≈ 8.86 µM). Also, in [12], the MIC is over 32 µg/mL. This compound displayed an IC50 in [13] of over 30 µM.
Consider `CNC(=O)c1ccc2ncc(=O)n(CCN3CCC(NCc4ccc(C)c([N+](=O)[O-])c4)CC3)c2c1` [VT-03-00108], for which the MIC was 0.25 µg/mL (≈ 0.522 µM) in data set [1] (setting [14]), 8 µg/mL (≈ 16.7 µM) in data set [2] (setting [15]) and 2 µg/mL (≈ 4.18 µM) in [4].
As for `Cc1ccc(CNC2CCN(CCn3c(=O)cnc4ccc(Cl)nc43)CC2)cc1[N+](=O)[O-]` [VT-03-00118], the MIC in data set [1] (setting [14]) amounted to 0.015 µg/mL (≈ 0.0328 µM); in data set [2] (setting [15]), 0.25 µg/mL (≈ 0.547 µM); in data set [4], 0.125 µg/mL (≈ 0.274 µM); in data set [5] it was 0.25 µg/mL (≈ 0.547 µM); in data set [6] it was 8 µg/mL (≈ 17.5 µM). In addition, the AUC(0-t) came to 497 ng·h/mL in [3] (iv, 5 mg/kg) and 9.3 ng·h/mL in [3] (oral, 10 mg/kg). Moreover, the Cmax in data set [3] (iv, 5 mg/kg) was 913 ng/mL; in data set [3] (oral, 10 mg/kg) it was 18.6 ng/mL. In addition, the Tmax in [3] (iv, 5 mg/kg) turned out to be 9.6 min; in data set [3] (oral, 10 mg/kg), 60 min. The half-life is 22.2 min in data set [3] (iv, 5 mg/kg) and 666 min in data set [3] (oral, 10 mg/kg). The same compound yielded a bioavailability in data set [3] of 1.12%. Besides, the inhibition at 0.1 µM in data set [7] was found to be 91.5%. Further, in data set [7], the inhibition at 1 µM amounted to 89%. The IC50 in data set [13] was over 30 µM.

As usually defined, the AUC(0-t) is exposure summed from dosing to a finite time, without extrapolation to infinity. A higher AUC(0-t) goes with more exposure. The Cmax is the highest concentration seen after dosing. As a reminder, the Tmax is the time from dosing to the highest level. In general, half-life refers to the time in which the quantity being followed falls by half. Low readings indicate fast loss, high ones slow loss. As usually defined, the bioavailability is the share of a dose that reaches the circulation, judged against a reference dose that is usually intravenous. A low value points to little systemic uptake. By inhibition is commonly meant the share of the control response that was lost under treatment. As usually defined, the IC50 is the midpoint of a concentration-inhibition curve. Low values mean inhibition by little substance, high ones a need for much substance.
